In US7892350B2, “Sacrificial agents for fly ash concrete” (Boral Material Technologies Inc., priority 2003, dated 2011):

Tests used:
[1] = Paste air entrainment, Maximum air protocol
In short: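 Pastes of 400 g cementitious powder in water plus additives, hand-mixed 1 min then mixer-stirred 2 min at 25 °C; water/binder ratio set so additive-free paste gives 115±5 mm mini-slump spread at 10 min. Air content calculated from mass of paste filling a fixed-volume cylinder at 6, 36 and 66 min, paste at rest between readings and hand-stirred 1 min beforehand.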

[2] = Paste air entrainment, Minimum air protocol
Procedure: Preparation of pastes: Pastes were prepared by pouring 400 g of cementitious powder in the 350-400 g of solution (water and additives) in a vessel (8.4 cm dia,×14.5 cm height) while gently stirring with a spatula; the exact quantity of water depends on the selected W/B ratio (see below); rapid hand mixing was continued for 1 minute, followed by intense stirring at 25° C. during 2 min using a hand-held mixer (BRAUN model MR400). The level of air entrained is dependent on the mode of utilisation of the mixer, namely the height of the mixer from the bottom of the vessel and the length of the mixing stroke; the following protocols were adopted.
Minimum air protocol: The BRAUN mixer is positioned at 1.0 inch from the bottom of the mixing vessel and the up-down motion of the mixer is limited to a 1.0 inch displacement; this provided ‘minimum air’ entrained air levels and is later referred to as ‘Minimum air protocol’ (Results reported in Table 6, col. 1 and Table 7).
Fluidity measurements: For all air entrainment measurements, the initial fluidity of the paste (without additives) was controlled using the ‘mini-slump’ procedure widely used for paste and grouts. In this protocol, a portion of the paste was transferred into the min-slump cone (a 2¼″ high, 1½″ bottom diameter, ¾″ top diameter cone); excess paste was skimmed-off with a straight; the cone was then raised and the spread diameter of the paste was recorded (average of two measurements). The fluidity is measured at 10 minutes after mixing. The paste is returned to the batch and reserved for subsequent AE measurements. The fluidity of the paste (without SA and AEA) is adjusted by changing the amount of water (water/cementitious ratio) which yields a spread diameter of 115±5 mm. The latter is monitored regularly.
Air entrainment measurements: For air entrainment measurements, a portion of the paste was transferred to overfill a Plexiglas cylinder (3¾ inches height, 2 inches interior diameter), which was then levelled flush to the top of the cylinder with a straight edge. The mass of the filled cylinder, minus the weight of the empty cylinder, is then recorded and used to calculate the amount of air according to the following formula: […]
This procedure was carried out at three times at 30 min. intervals (6, 36 and 66 min); the paste was let to stand at rest between measurements, and was stirred gently by hand for one minute prior to the subsequent air entrainment measurements.
Typical mixture compositions for air entrainment measurements in pastes containing a single additive using ‘Minimum air protocol’ (results shown in Table 6, col. 1): […]

[3] = Precipitation in slurry extract or leachate; format: physicochemical; conditions: pH 12.5, entries in parentheses
[4] = Adsorption/precipitation of SA or AEA in 10 wt % aqueous fly ash or cement slurries at pH 12.5; format: physicochemical; conditions: initial SA 3 mM
[5] = Air entrainment in fresh concrete (ASTM C 231-97)
Procedure: The sacrificial agents were added to the cementitious mixtures in several ways: • 1) mixing together with water and air entrainment agent solution • 2) premixed with the fly ash • 3) post-added into the fresh concrete which already contained the air entrainment agent.

SMILES: OCCOc1ccccc1 [EGPE, Ethylene glycol phenyl ether]
- Air entrained at 66 min ([1]; 50:50 fly ash B1 (LOI 4.36%):PCA paste, Air 30 (0.0125%)/NS/X=1/4/4, X = the labelled SA): 4 vol %
- Air entrained at 66 min ([1]; 50:50 fly ash B1 (LOI 4.36%):PCA paste, Air 30 (0.0125 wt %)/ND/X=1/4/4, X = the labelled SA): 14 vol %
- Air entrained at 66 min ([1]; 50:50 fly ash C1 (LOI 1.62%):PCA paste, Air 30 (0.0125%)/NS/X=1/4/4, X = the labelled SA): 9 vol %
- Air entrained at 66 min ([1]; 50:50 fly ash C1 (LOI 1.62%):PCA paste, Air 30 (0.0125 wt %)/ND/X=1/4/4, X = the labelled SA): 19 vol %
- Air entrained at 66 min ([1]; 50:50 fly ash D (LOI […]):PCA paste, Air 30 (0.0125%)/NS/X=1/4/4, X = the labelled SA): 15 vol %
- Air entrained at 66 min ([1]; 50:50 fly ash D (LOI […]):PCA paste, Air 30 (0.0125 wt %)/ND/X=1/4/4, X = the labelled SA): 22 vol %
- Air entrained at 66 min ([1]; 50:50 fly ash M1 (LOI […]):PCA paste, Air 30 (0.0125%)/NS/X=1/4/4, X = the labelled SA): 11 vol %
- Air entrained at 66 min ([1]; 50:50 fly ash M1 (LOI […]):PCA paste, Air 30 (0.0125 wt %)/ND/X=1/4/4, X = the labelled SA): 18 vol %
- Air entrained at 66 min ([1]; 50:50 fly ash M2 (LOI 5.34%):PCA paste, Air 30 (0.0125%)/NS/X=1/4/4, X = the labelled SA): 3 vol %
- Air entrained at 66 min ([1]; 50:50 fly ash M2 (LOI 5.34%):PCA paste, Air 30 (0.0125 wt %)/ND/X=1/4/4, X = the labelled SA): 11 vol %
- Air entrained at 66 min ([1]; 50:50 fly ash M3 (LOI 11.33%):PCA paste, Air 30 (0.0125%)/NS/X=1/4/4, X = the labelled SA): 3 vol %
- Air entrained at 66 min ([1]; 50:50 fly ash M3 (LOI 11.33%):PCA paste, Air 30 (0.0125 wt %)/ND/X=1/4/4, X = the labelled SA): 13 vol %
- Air entrained at 66 min ([1]; 50:50 fly ash R (LOI […]):PCA paste, Air 30 (0.0125%)/NS/X=1/4/4, X = the labelled SA): 11 vol %
- Air entrained at 66 min ([1]; 50:50 fly ash R (LOI […]):PCA paste, Air 30 (0.0125 wt %)/ND/X=1/4/4, X = the labelled SA): 18 vol %
- Air entrained ([1]; PCA cement paste, 0.0125% SA or AEA alone, Maximum air protocol): 1 vol %
- Air entrained at 66 min ([1]; PCA paste, no fly ash, Air 30 (0.0125 wt %)/ND/X=1/4/4, X = the labelled SA): 23 vol %
- air entrained (average) ([1]; fly ash:cement pastes, SA added at four (4) times the fixed Air 30 dosage (0.0125%)): 7%
- Average of air entrained at 66 min ([1]; over the fly ash:PCA pastes of Table 9, Air 30 (0.0125 wt %)/ND/X=1/4/4, X = the labelled SA): 17%
- Air entrained ([2]; 50:50 fly ash B1 (LOI 4.36%):PCA paste, 0.1 wt % Air 30 alone or with 0.05 wt % of the SA): 4 vol %
- Air entrained ([2]; 50:50 fly ash C1 (LOI 1.62%):PCA paste, 0.1 wt % Air 30 alone or with 0.05 wt % of the SA): 5 vol %
- Air entrained ([2]; 50:50 fly ash D (LOI […]):PCA paste, 0.1 wt % Air 30 alone or with 0.05 wt % of the SA): 5 vol %
- Air entrained ([2]; 50:50 fly ash M1 (LOI […]):PCA paste, 0.1 wt % Air 30 alone or with 0.05 wt % of the SA): 5 vol %
- Air entrained ([2]; 50:50 fly ash M2 (LOI 5.34%):PCA paste, 0.1 wt % Air 30 alone or with 0.05 wt % of the SA): 4 vol %
- Air entrained ([2]; 50:50 fly ash M3 (LOI 11.33%):PCA paste, 0.1 wt % Air 30 alone or with 0.05 wt % of the SA): 4 vol %
- Air entrained ([2]; 50:50 fly ash R (LOI […]):PCA paste, 0.1 wt % Air 30 alone or with 0.05 wt % of the SA): 5 vol %
- Air entrained ([2]; PCA cement paste, 0.1% SA or AEA alone, Minimum air protocol): 0 vol %
- Average of air entrained ([2]; over the fly ash:PCA pastes of Table 7, 0.1 wt % Air 30 alone or with 0.05 wt % of the SA): 4%
- Precipitation (wt % precipitated) ([3]; solution extracted from 10 wt % fly ash B1 (LOI 4.36%) slurry): 0 wt %
- Precipitation (wt % precipitated) ([3]; solution extracted from 10 wt % fly ash C1, class C (LOI 1.62%) slurry): 0 wt %
- Precipitation (wt % precipitated) ([3]; solution extracted from 10 wt % fly ash C2 (LOI 3.32%) slurry): 0 wt %
- Precipitation (wt % precipitated) ([3]; solution extracted from 10 wt % fly ash M1 (LOI […]) slurry): 1 wt %
- Precipitation (wt % precipitated) ([3]; solution extracted from 10 wt % fly ash M2 (LOI 5.34%) slurry): 0 wt %
- Precipitation (wt % precipitated) ([3]; solution extracted from 10 wt % fly ash M3 (LOI 11.33%) slurry): 0 wt %
- Precipitation (wt % precipitated) ([3]; solution extracted from 10 wt % fly ash N (LOI 0.30%) slurry): 0 wt %
- Adsorption (wt % Adsorbed) ([4]; 10 wt % fly ash B1 (LOI 4.36%) slurry, Air 30/Air 40 0.105 wt %): 12 wt %
- Adsorption (wt % Adsorbed) ([4]; 10 wt % fly ash C1, class C (LOI 1.62%) slurry, Air 30/Air 40 0.105 wt %): 12 wt %
- Adsorption (wt % Adsorbed) ([4]; 10 wt % fly ash C2 (LOI 3.32%) slurry): 6 wt %
- Adsorption (wt % Adsorbed) ([4]; 10 wt % fly ash M1 (LOI […]) slurry, Air 30/Air 40 0.105 wt %): 4 wt %
- Adsorption (wt % Adsorbed) ([4]; 10 wt % fly ash M2 (LOI 5.34%) slurry, Air 30/Air 40 0.105 wt %): 14 wt %
- Adsorption (wt % Adsorbed) ([4]; 10 wt % fly ash M3 (LOI 11.33%) slurry, Air 30/Air 40 0.105 wt %): 14 wt %
- Adsorption (wt % Adsorbed) ([4]; 10 wt % fly ash N (LOI 0.30%) slurry): 1 wt %
- Air ([5]; 25% B1 fly ash (LOI 1.9%):PCA concrete, Air 40 0.003 % CM + EGPE 0.100 % CM): 5.1%
- Air ([5]; 25% B1 fly ash (LOI 1.9%):PCA concrete, Air 40 0.006 % CM + EGPE 0.100 % CM): 6.2%
- Air ([5]; 25% B1 fly ash (LOI 1.9%):PCA concrete, Air 40 0.009 % CM + EGPE 0.100 % CM): 7.4%
- Air ([5]; Air 30 0.006 % CM, EGPE 0.100 % CM added during batching, PCA cement, B1 fly ash 25 %, LOI […]): 11.4%
- Air ([5]; Air 30 0.006 % CM, EGPE 0.100 % CM premixed with fly ash, PCA cement, B1 fly ash 25 %, LOI […]): 10.0%
- Air ([5]; Air 40 0.003 % CM, EGPE 0.100 % CM added during batching, PCA cement, B1 fly ash 25 %, LOI […]): 2.7%
- Air ([5]; Air 40 0.003 % CM, EGPE 0.100 % CM premixed with fly ash, PCA cement, B1 fly ash 25 %, LOI […]): 2.9%
- Air ([5]; Air 40 0.008 % CM, EGPE 0.100 % CM added during batching, PCA cement, B1 fly ash 25 %, LOI […]): 4.9%
- Air ([5]; Air 40 0.008 % CM, EGPE 0.100 % CM premixed with fly ash, PCA cement, B1 fly ash 25 %, LOI […]): 4.7%
- % air, levelling-off ([5]; B1 fly ash ([…] LOI):PCA concrete, Air 40 0.003 wt %, increasing dosages of EGPE): 6-8 vol %
- % air ([5]; B1 fly ash ([…] LOI):PCA concrete, EGPE 0.1 wt % with increasing Air 40 dosage): approx 5%
- Air ([5]; PCA cement concrete, no fly ash, Air 40 0.003 % CM + EGPE 0.050 % CM): 6.5%
- Air ([5]; PCA cement concrete, no fly ash, Air 40 0.003 % CM + EGPE 0.100 % CM): 6.5%
- Air ([5]; PCA cement concrete, no fly ash, Air 40 0.003 % CM + EGPE 0.200 % CM): 6.2%
- Air ([5]; PCA cement concrete, no fly ash, Air 40 0.006 % CM + EGPE 0.050 % CM): 8.1%
- Air ([5]; PCA cement concrete, no fly ash, Air 40 0.006 % CM + EGPE 0.100 % CM): 8.3%
- Air ([5]; PCA cement concrete, no fly ash, Air 40 0.006 % CM + EGPE 0.200 % CM): 8.0%
- Air ([5]; PCC cement concrete, no fly ash, no Air 40, EGPE alone 0.010 % CM): 1.9%
- Air ([5]; PCC cement concrete, no fly ash, no Air 40, EGPE alone 0.030 % CM): 2.0%
- Air ([5]; PCC cement concrete, no fly ash, no Air 40, EGPE alone 0.050 % CM): 2.0%
- Air ([5]; PCC cement concrete, no fly ash, no Air 40, EGPE alone 0.100 % CM): 2.1%
- increase in air entrained above the control values ([5]; cement-only concrete without air entrainment agents, various dosages): about 1%
